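Exposure lasted 48 hours, with cells grown in 96-well plates and compounds tested at five concentrations. TGI denotes the concentration required for complete inhibition of growth.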
Experiments:
Test in all cases: NCI anticancer screen, dose series, 48 h
786-0 renal = test system: 786-0 renal
A498 renal = test system: A498 renal
A549 NSCLC = test system: A549 NSCLC
ACHN renal = test system: ACHN renal
CAKI-1 renal = test system: CAKI-1 renal
CCRF-CEM leukemia = test system: CCRF-CEM leukemia
COLO 205 colon = test system: COLO 205 colon
DLD-1 colon = test system: DLD-1 colon
DMS 114 small cell lung = test system: DMS 114 small cell lung
DMS 273 small cell lung = test system: DMS 273 small cell lung
EKVX NSCLC = test system: EKVX NSCLC
HCC-2998 colon = test system: HCC-2998 colon
HCT-116 colon = test system: HCT-116 colon
HCT-15 colon = test system: HCT-15 colon
HL-60(TB) leukemia = test system: HL-60(TB) leukemia
HOP-18 NSCLC = test system: HOP-18 NSCLC
HOP-62 NSCLC = test system: HOP-62 NSCLC
HOP-92 NSCLC = test system: HOP-92 NSCLC
HT29 colon = test system: HT29 colon
IGROV1 ovarian = test system: IGROV1 ovarian
KM12 colon = test system: KM12 colon
KM20L2 colon = test system: KM20L2 colon
LOX IMVI melanoma = test system: LOX IMVI melanoma
LXFL 529 NSCLC = test system: LXFL 529 NSCLC
M14 melanoma = test system: M14 melanoma
M19-MEL melanoma = test system: M19-MEL melanoma
MALME-3M melanoma = test system: MALME-3M melanoma
MOLT-4 leukemia = test system: MOLT-4 leukemia
NCI-H226 lung = test system: NCI-H226 lung
NCI-H460 lung = test system: NCI-H460 lung
NCI-H522 lung = test system: NCI-H522 lung
OVCAR-3 ovarian = test system: OVCAR-3 ovarian
OVCAR-4 ovarian = test system: OVCAR-4 ovarian
OVCAR-5 ovarian = test system: OVCAR-5 ovarian
OVCAR-8 ovarian = test system: OVCAR-8 ovarian
RPMI-8226 leukemia = test system: RPMI-8226 leukemia
RXF 393 renal = test system: RXF 393 renal
SF-268 CNS = test system: SF-268 CNS
SF-295 CNS = test system: SF-295 CNS
SF-539 CNS = test system: SF-539 CNS
SK-MEL-28 melanoma = test system: SK-MEL-28 melanoma
SK-MEL-5 melanoma = test system: SK-MEL-5 melanoma
SK-OV-3 ovarian = test system: SK-OV-3 ovarian
SN12C renal = test system: SN12C renal
SNB-19 CNS = test system: SNB-19 CNS
SNB-75 CNS = test system: SNB-75 CNS
SNB-78 CNS = test system: SNB-78 CNS
SR leukemia = test system: SR leukemia
SW-620 colon = test system: SW-620 colon
TK-10 renal = test system: TK-10 renal
U251 CNS = test system: U251 CNS
UACC-257 melanoma = test system: UACC-257 melanoma
UACC-62 melanoma = test system: UACC-62 melanoma
UO-31 renal = test system: UO-31 renal

Measured: TGI

Cc1cccc(O)c(=O)c1
33.8 µM: CCRF-CEM leukemia
80.6 µM: SR leukemia
92.6 µM: RPMI-8226 leukemia
37.8 µM: COLO 205 colon
45.7 µM: DMS 114 small cell lung
98.9 µM: EKVX NSCLC
29.3 µM: NCI-H226 lung
12.1 µM: HL-60(TB) leukemia
> 100 µM: 786-0 renal | A498 renal | A549 NSCLC | ACHN renal | CAKI-1 renal | DLD-1 colon | DMS 273 small cell lung | HCC-2998 colon | HCT-116 colon | HCT-15 colon | HOP-18 NSCLC | HOP-62 NSCLC | HOP-92 NSCLC | HT29 colon | IGROV1 ovarian | KM12 colon | KM20L2 colon | LOX IMVI melanoma | LXFL 529 NSCLC | M14 melanoma | M19-MEL melanoma | MALME-3M melanoma | MOLT-4 leukemia | NCI-H460 lung | NCI-H522 lung | OVCAR-3 ovarian | OVCAR-4 ovarian | OVCAR-5 ovarian | OVCAR-8 ovarian | RXF 393 renal | SF-268 CNS | SF-295 CNS | SF-539 CNS | SK-MEL-28 melanoma | SK-MEL-5 melanoma | SK-OV-3 ovarian | SN12C renal | SNB-19 CNS | SNB-75 CNS | SNB-78 CNS | SW-620 colon | TK-10 renal | U251 CNS | UACC-257 melanoma | UACC-62 melanoma | UO-31 renal

Source: PubChem BioAssay (NCI)
